In ChEMBL document CHEMBL5137034, “Chemical space exploration around indolylarylsulfone scaffold led to a novel class of highly active HIV-1 NNRTIs with spiro structural features” (Eur J Med Chem, 2022):

Columns and labels:
[1] = system: Human immunodeficiency virus 1; test: Antiviral activity against HIV-1 harboring F227L/V106A double mutant infected in human MT4 cells assessed as reduction in virus induced cytotoxicity incubated for 5 to 7 days by MTT assay; format: functional, organism-based; details: Human immunodeficiency virus 1, MT4
[2] = system: Human immunodeficiency virus 1; test: Antiviral activity against wild type HIV-1 3B infected in human MT4 cells assessed as reduction in virus induced cytotoxicity incubated for 5 to 7 days by MTT assay; format: functional, organism-based; details: Human immunodeficiency virus 1, 3B
[3] = Cytotoxicity against human MT4 cells assessed as reduction in cell viability incubated for 5 to 7 days by MTT assay; format: toxicity, cell-based; details: time 5-7 day
[4] = Selectivity index, ratio of CC50 for cytotoxicity against human MT4 cells to EC50 for antiviral activity against wildtype HIV-1 3B infected in human MT4 cells; format: toxicity, cell-based; details: read-out: Ratio CC50/EC50
[5] = system: Human immunodeficiency virus 1; test: Antiviral activity against HIV-1 harboring L100I mutant infected in human MT4 cells assessed as reduction in virus induced cytotoxicity incubated for 5 to 7 days by MTT assay; format: functional, organism-based; details: Human immunodeficiency virus 1, MT4
[6] = system: Human immunodeficiency virus 1; test: Antiviral activity against HIV-1 harboring K103N mutant infected in human MT4 cells assessed as reduction in virus induced cytotoxicity incubated for 5 to 7 days by MTT assay; format: functional, organism-based; details: Human immunodeficiency virus 1, MT4
[7] = system: Human immunodeficiency virus 1; test: Antiviral activity against HIV-1 harboring Y181C mutant infected in human MT4 cells assessed as reduction in virus induced cytotoxicity incubated for 5 to 7 days by MTT assay; format: functional, organism-based; details: Human immunodeficiency virus 1, MT4
[8] = system: Human immunodeficiency virus 1; test: Antiviral activity against HIV-1 harboring Y188L mutant infected in human MT4 cells assessed as reduction in virus induced cytotoxicity incubated for 5 to 7 days by MTT assay; format: functional, organism-based; details: Human immunodeficiency virus 1, MT4
[9] = system: Human immunodeficiency virus 1; test: Antiviral activity against HIV-1 harboring E138K mutant infected in human MT4 cells assessed as reduction in virus induced cytotoxicity incubated for 5 to 7 days by MTT assay; format: functional, organism-based; details: Human immunodeficiency virus 1, MT4
[10] = system: Human immunodeficiency virus 1; test: Antiviral activity against HIV-1 RES056 infected in human MT4 cells assessed as reduction in virus induced cytotoxicity incubated for 5 to 7 days by MTT assay; format: functional, organism-based; details: Human immunodeficiency virus 1, RES056, MT4
[11] = target: Human immunodeficiency virus type 1 reverse transcriptase (Human immunodeficiency virus 1, UniProt Q72547); test: Inhibition of wild type HIV-1 reverse transcriptase assessed as reduction of biotin-dUTP incorporation into […] using ABTS as substrate incubated for 1 hrs by ELISA analysis
[12] = system: Human immunodeficiency virus 1; test: Potency index, ratio of Nevirapine EC50 to test compound EC50 for antiviral activity against wild type HIV-1 3B infected in human MT4 cells assessed as reduction in virus induced cytotoxicity incubated for 5 to 7 days by MTT assay; format: functional; details: time 5-7 day
[13] = system: Human immunodeficiency virus 1; test: Potency index, ratio of Zidovudine EC50 to test compound EC50 for antiviral activity against wild type HIV-1 3B infected in human MT4 cells assessed as reduction in virus induced cytotoxicity incubated for 5 to 7 days by MTT assay; format: functional; details: time 5-7 day
[14] = system: Human immunodeficiency virus 1; test: Potency index, ratio of 5-chloro-3-(m-tolylsulfonyl)-1H-indole-2-carboxamide EC50 to test compound EC50 for antiviral activity against HIV-1 harboring E138K mutant infected in human MT4 cells assessed as reduction in virus induced cytotoxicity incubated for 5 to 7 days by MTT assay; format: functional; details: time 5-7 day

Cc1cc(C)cc(S(=O)(=O)c2c(C(=O)NC3CC4(CCN(S(C)(=O)=O)CC4)C3)[nH]c3ccc(Cl)cc23)c1
EC50 [1]: 1290 nM | EC50 [2]: 21 nM | CC50 [3]: > 222000 nM | selectivity ratio [4]: > 10300 | EC50 [5]: 250 nM | EC50 [6]: 440 nM | EC50 [7]: 970 nM | EC50 [8]: > 191000 nM | EC50 [9]: 100 nM | EC50 [10]: > 222000 nM

Cc1cc(C)cc(S(=O)(=O)c2c(C(=O)NC3CC4(C3)CN(S(C)(=O)=O)C4)[nH]c3ccc(Cl)cc23)c1
EC50 [1]: 410 nM | EC50 [2]: 11 nM | CC50 [3]: > 233000 nM | selectivity ratio [4]: > 20900 | EC50 [5]: 120 nM | EC50 [6]: 210 nM | EC50 [7]: 470 nM | EC50 [8]: 1760 nM | EC50 [9]: 110 nM | EC50 [10]: ≥ 12800 nM | IC50 [11]: 120 nM

Cc1cc(C)cc(S(=O)(=O)c2c(C(=O)NC3CC4(CCN(CC(N)=O)CC4)C3)[nH]c3ccc(Cl)cc23)c1
EC50 [1]: 480 nM | EC50 [2]: 9.8 nM | CC50 [3]: 3610 nM | selectivity ratio [4]: 367 | EC50 [5]: 180 nM | EC50 [6]: 150 nM | EC50 [7]: 850 nM | EC50 [8]: 1290 nM | EC50 [9]: 200 nM | EC50 [10]: > 3610 nM

Cc1cc(C)cc(S(=O)(=O)c2c(C(=O)NC3CC4(CCN(C(=O)OC(C)(C)C)CC4)C3)[nH]c3ccc(Cl)cc23)c1
EC50 [2]: 190 nM | CC50 [3]: 133000 nM | selectivity ratio [4]: 685

Cc1cc(C)cc(S(=O)(=O)c2c(C(=O)NC3CC4(C3)CN(Cc3n[nH]c(=O)n3C)C4)[nH]c3ccc(Cl)cc23)c1
EC50 [1]: 230 nM | EC50 [2]: 5.3 nM | CC50 [3]: 65600 nM | selectivity ratio [4]: 12400 | EC50 [5]: 47 nM | EC50 [6]: 56 nM | EC50 [7]: 250 nM | EC50 [8]: 560 nM | EC50 [9]: 40 nM | EC50 [10]: 7450 nM | IC50 [11]: 170 nM | Ratio EC50 [12]: 30 | Ratio EC50 [13]: 4 | Ratio EC50 [14]: 23

Cc1cc(C)cc(S(=O)(=O)c2c(C(=O)NC3CC4(C3)CN(C(=O)OC(C)(C)C)C4)[nH]c3ccc(Cl)cc23)c1
EC50 [2]: 70 nM | CC50 [3]: > 224000 nM | selectivity ratio [4]: > 3220

Cc1cc(C)cc(S(=O)(=O)c2c(C(=O)NC3CC4(CCNCC4)C3)[nH]c3ccc(Cl)cc23)c1
EC50 [2]: 49 nM | CC50 [3]: 24200 nM | selectivity ratio [4]: 493

Cc1cc(C)cc(S(=O)(=O)c2c(C(=O)NC3CC4(CCN(Cc5n[nH]c(=O)n5C)C4)C3)[nH]c3ccc(Cl)cc23)c1 (centres undefined)
EC50 [1]: 270 nM | EC50 [2]: 9.9 nM | CC50 [3]: > 214000 nM | selectivity ratio [4]: > 21600 | EC50 [5]: 58 nM | EC50 [6]: 140 nM | EC50 [7]: 210 nM | EC50 [8]: 1460 nM | EC50 [9]: 45 nM | EC50 [10]: 133000 nM | Ratio EC50 [12]: 16 | Ratio EC50 [13]: 2

Cc1cc(C)cc(S(=O)(=O)c2c(C(=O)NC3CC4(CCN(S(C)(=O)=O)C4)C3)[nH]c3ccc(Cl)cc23)c1 (centres undefined)
EC50 [1]: 600 nM | EC50 [2]: 12 nM | CC50 [3]: 205000 nM | selectivity ratio [4]: 16500 | EC50 [5]: 110 nM | EC50 [6]: 330 nM | EC50 [7]: 330 nM | EC50 [8]: 1930 nM | EC50 [9]: 69 nM | EC50 [10]: > 205000 nM

Cc1cc(C)cc(S(=O)(=O)c2c(C(=O)NC3CC4(CCN(CC(N)=O)C4)C3)[nH]c3ccc(Cl)cc23)c1 (centres undefined)
EC50 [1]: 420 nM | EC50 [2]: 11 nM | CC50 [3]: 3700 nM | selectivity ratio [4]: 328 | EC50 [5]: 130 nM | EC50 [6]: 190 nM | EC50 [7]: 420 nM | EC50 [8]: 1420 nM | EC50 [9]: 72 nM | EC50 [10]: > 3700 nM | IC50 [11]: 130 nM

Cc1cc(C)cc(S(=O)(=O)c2c(C(=O)NC3CC4(C3)CN(CC(N)=O)C4)[nH]c3ccc(Cl)cc23)c1
EC50 [1]: 500 nM | EC50 [2]: 11 nM | CC50 [3]: 6080 nM | selectivity ratio [4]: 526 | EC50 [5]: 100 nM | EC50 [6]: 140 nM | EC50 [7]: 390 nM | EC50 [8]: 1280 nM | EC50 [9]: 74 nM | EC50 [10]: ≥ 5770 nM

Cc1cc(C)cc(S(=O)(=O)c2c(C(=O)NC3CC4(CNC4)C3)[nH]c3ccc(Cl)cc23)c1
EC50 [2]: 41 nM | CC50 [3]: 28600 nM | selectivity ratio [4]: 676

Cc1cc(C)cc(S(=O)(=O)c2c(C(=O)NC3CC4(CCN(Cc5n[nH]c(=O)n5C)CC4)C3)[nH]c3ccc(Cl)cc23)c1
EC50 [1]: 1420 nM | EC50 [2]: 22 nM | CC50 [3]: 178000 nM | selectivity ratio [4]: 8350 | EC50 [5]: 270 nM | EC50 [6]: 570 nM | EC50 [7]: 940 nM | EC50 [8]: 8070 nM | EC50 [9]: 170 nM | EC50 [10]: > 178000 nM

Cc1cc(C)cc(S(=O)(=O)c2c(C(=O)NC3CC4(CCN(C(=O)OC(C)(C)C)C4)C3)[nH]c3ccc(Cl)cc23)c1 (centres undefined)
EC50 [2]: 120 nM | CC50 [3]: 171000 nM | selectivity ratio [4]: 1470

Cc1cc(C)cc(S(=O)(=O)c2c(C(=O)NC3CC4(CCNC4)C3)[nH]c3ccc(Cl)cc23)c1 (centres undefined)
EC50 [2]: 38 nM | CC50 [3]: 25200 nM | selectivity ratio [4]: 664

Cc1cc(C)cc(S(=O)(=O)c2c(C(N)=O)[nH]c3ccc(Cl)cc23)c1
EC50 [1]: 47 nM | EC50 [2]: 4.1 nM | selectivity ratio [4]: 2160 | EC50 [5]: 15 nM | EC50 [6]: 17 nM | EC50 [7]: 39 nM | EC50 [8]: 1100 nM | EC50 [9]: 900 nM | EC50 [10]: 1800 nM | IC50 [11]: 15 nM

O=C1Nc2ccc(Cl)cc2[C@@](C#CC2CC2)(C(F)(F)F)O1 [EFAVIRENZ]
EC50 [2]: 3.2 nM | CC50 [3]: > 6330 nM | EC50 [6]: 97 nM | EC50 [8]: 89 nM | EC50 [9]: […] | EC50 [10]: 105 nM

Cc1cc(C#N)cc(C)c1Oc1nc(Nc2ccc(C#N)cc2)nc(N)c1Br [ETRAVIRINE]
EC50 [1]: 16 nM | CC50 [3]: > 4590 nM | selectivity ratio [4]: > 1570 | EC50 [5]: 9 nM | EC50 [8]: 15 nM | EC50 [10]: 35 nM

Cc1ccnc2c1NC(=O)c1cccnc1N2C1CC1 [NEVIRAPINE]
EC50 [1]: 3540 nM | CC50 [3]: > 15000 nM | EC50 [6]: 3550 nM | EC50 [7]: 3780 nM | EC50 [8]: 4420 nM | EC50 [9]: 158 nM | EC50 [10]: 2220 nM

Cc1cn([C@H]2C[C@H](N=[N+]=[N-])[C@@H](CO)O2)c(=O)[nH]c1=O [ZIDOVUDINE]
EC50 [1]: 4 nM | EC50 [2]: 21 nM | CC50 [3]: > 7480 nM | selectivity ratio [4]: > 352 | EC50 [5]: 5 nM | EC50 [7]: 5 nM | EC50 [8]: 4 nM | EC50 [9]: 7 nM | EC50 [10]: 10 nM
